Patent publication US20120231097A1, “MEDICINAL COMPOSITION AND USAGE” (priority 2009, published 2012)

Tested on: human colon cancer cell strain colon 38
Test: Anti-tumor effect with 5-fluorouracil in human cancer xenograft tumor animal model
Assay type: in vivo
Conditions: after 4 weeks
Excerpt: According to methods described in “Methodology in Pharmacological Research of Traditional Chinese Medicine” (People's Medical Publishing House), test the anti-tumor effects of Formula A, B, C, D traditional Chinese medicine composition prepared from Embodiment 1-4 along with chemotherapy drugs (5-fluorouracil) for human cancer xenograft tumor animal model. 5-fluorouracil (fu) is broad spectrum anti-tumor medicine, it is mainly used to treat digestive tract tumor, commonly seen adverse reactions include nausea, reduced appetite or vomit, abdomen discomfort or diarrhea. About the test method, use human colon cancer cell strain colon 38 to inoculate subcutaneously in 18-23 g mouse, 14 days after the inoculation, respectively ingest Formula A, B, C, D traditional Chinese medicine composition prepared from Embodiment 1-4 into the stomach of each group of animals, the dosage is 500 mg/kg; 0.5-1 hour after stomach ingestion, inject 5-fluorouracil into abdomen, the dosage is 30 mg/kg. Execute stomach ingestion and drug injection twice each week, totaling 4 weeks.

O=c1[nH]cc(F)c(=O)[nH]1 [fu, 5-fluorouracil]
Average tumor weight (formula 500 mg/kg into stomach, fu 30 mg/kg into abdomen, twice each week): 0.42 ± 0.11 g | Death number (of 10 supplied mice): 5 | Tumor inhibition rate (%) (versus CK group's average tumor weight): 64%
